According to paper PMC12320230, “BAY11-7082 Targets RNF25 to Reverse TRIP4 Ubiquitination-dependent NF-κB Activation and Apoptosis Resistance in Renal Cell Carcinoma” (International Journal of Biological Sciences, 2025):

Target: T1, RNF25 (Homo sapiens, UniProt Q96BH1)
T1 construct: His-RNF25 used in ubiquitination assay
T1 sequence (Q96BH1 1-459): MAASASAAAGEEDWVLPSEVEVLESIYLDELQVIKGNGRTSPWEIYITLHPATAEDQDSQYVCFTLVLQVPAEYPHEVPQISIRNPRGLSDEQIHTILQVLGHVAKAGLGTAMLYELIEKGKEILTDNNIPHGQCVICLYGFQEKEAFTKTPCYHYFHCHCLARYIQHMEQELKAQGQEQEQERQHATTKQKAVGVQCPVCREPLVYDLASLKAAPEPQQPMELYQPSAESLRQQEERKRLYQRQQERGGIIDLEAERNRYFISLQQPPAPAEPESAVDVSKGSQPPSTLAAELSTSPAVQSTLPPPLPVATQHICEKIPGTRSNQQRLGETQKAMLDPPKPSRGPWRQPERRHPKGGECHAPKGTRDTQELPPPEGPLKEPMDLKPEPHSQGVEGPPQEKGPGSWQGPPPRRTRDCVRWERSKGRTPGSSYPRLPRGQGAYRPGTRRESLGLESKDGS
Assay: isothermal titration calorimetry
Assay type: binding

Kd: 950 nM
Structure (SMILES): Cc1ccc(S(=O)(=O)/C=C/C#N)cc1 [BAY11-7082]
